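96-well plates; 48 h exposure; 5 concentrations. Endpoints by linear interpolation between flanking doses. Not reached: highest tested concentration assigned. Abbreviation: GI50, concentration required for 50% inhibition of growth. TGI denotes the concentration required for complete inhibition of growth.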
Tests used:
Experiment in all cases: NCI anticancer screen, dose series, 48 h
786-0 renal = tested on: 786-0 renal
A498 renal = tested on: A498 renal
A549 NSCLC = tested on: A549 NSCLC
ACHN renal = tested on: ACHN renal
BT-549 breast = tested on: BT-549 breast
CAKI-1 renal = tested on: CAKI-1 renal
COLO 205 colon = tested on: COLO 205 colon
DU-145 prostate = tested on: DU-145 prostate
EKVX NSCLC = tested on: EKVX NSCLC
HCC-2998 colon = tested on: HCC-2998 colon
HCT-116 colon = tested on: HCT-116 colon
HCT-15 colon = tested on: HCT-15 colon
HOP-62 NSCLC = tested on: HOP-62 NSCLC
HOP-92 NSCLC = tested on: HOP-92 NSCLC
HS 578T breast = tested on: HS 578T breast
HT29 colon = tested on: HT29 colon
IGROV1 ovarian = tested on: IGROV1 ovarian
K-562 leukemia = tested on: K-562 leukemia
KM12 colon = tested on: KM12 colon
LOX IMVI melanoma = tested on: LOX IMVI melanoma
M14 melanoma = tested on: M14 melanoma
MALME-3M melanoma = tested on: MALME-3M melanoma
MCF7 breast = tested on: MCF7 breast
MDA-MB-435 = tested on: MDA-MB-435
MOLT-4 leukemia = tested on: MOLT-4 leukemia
NCI-H226 lung = tested on: NCI-H226 lung
NCI-H23 lung = tested on: NCI-H23 lung
NCI-H460 lung = tested on: NCI-H460 lung
NCI-H522 lung = tested on: NCI-H522 lung
NCI/ADR-RES ovarian = tested on: NCI/ADR-RES ovarian
OVCAR-3 ovarian = tested on: OVCAR-3 ovarian
OVCAR-4 ovarian = tested on: OVCAR-4 ovarian
OVCAR-5 ovarian = tested on: OVCAR-5 ovarian
OVCAR-8 ovarian = tested on: OVCAR-8 ovarian
PC-3 prostate = tested on: PC-3 prostate
RPMI-8226 leukemia = tested on: RPMI-8226 leukemia
RXF 393 renal = tested on: RXF 393 renal
SF-268 CNS = tested on: SF-268 CNS
SF-295 CNS = tested on: SF-295 CNS
SF-539 CNS = tested on: SF-539 CNS
SK-MEL-2 melanoma = tested on: SK-MEL-2 melanoma
SK-MEL-28 melanoma = tested on: SK-MEL-28 melanoma
SK-MEL-5 melanoma = tested on: SK-MEL-5 melanoma
SK-OV-3 ovarian = tested on: SK-OV-3 ovarian
SN12C renal = tested on: SN12C renal
SNB-19 CNS = tested on: SNB-19 CNS
SNB-75 CNS = tested on: SNB-75 CNS
SW-620 colon = tested on: SW-620 colon
T-47D breast = tested on: T-47D breast
TK-10 renal = tested on: TK-10 renal
U251 CNS = tested on: U251 CNS
UACC-257 melanoma = tested on: UACC-257 melanoma
UACC-62 melanoma = tested on: UACC-62 melanoma
UO-31 renal = tested on: UO-31 renal

What does the source list for `O=C(CN1C(=O)S/C(=C\C(Cl)=C\c2ccccc2)C1=O)NCCCn1ccnc1`?
GI50 (786-0 renal): 1.98 µM; TGI (786-0 renal): 3.91 µM; GI50 (A498 renal): 1.28 µM; TGI (A498 renal): 5.57 µM; GI50 (A549 NSCLC): 3.3 µM; TGI (A549 NSCLC): 23.2 µM; GI50 (ACHN renal): 1.99 µM; TGI (ACHN renal): 5.22 µM; GI50 (BT-549 breast): 2.12 µM; TGI (BT-549 breast): 4.83 µM; GI50 (CAKI-1 renal): 1.91 µM; TGI (CAKI-1 renal): 4.16 µM; GI50 (COLO 205 colon): 2.1 µM; TGI (COLO 205 colon): 4.82 µM; GI50 (DU-145 prostate): 2.22 µM; TGI (DU-145 prostate): 5.64 µM; GI50 (EKVX NSCLC): 2.43 µM; TGI (EKVX NSCLC): 6.69 µM; GI50 (HCC-2998 colon): 1.88 µM; TGI (HCC-2998 colon): 3.57 µM; GI50 (HCT-116 colon): 1.53 µM; TGI (HCT-116 colon): 3.14 µM; GI50 (HCT-15 colon): 1.95 µM; TGI (HCT-15 colon): 7 µM; GI50 (HOP-62 NSCLC): 3.45 µM; TGI (HOP-62 NSCLC): 22.5 µM; GI50 (HOP-92 NSCLC): 1.76 µM; TGI (HOP-92 NSCLC): 4.46 µM; GI50 (HS 578T breast): 2.4 µM; TGI (HS 578T breast): 7.35 µM; GI50 (HT29 colon): 2.18 µM; TGI (HT29 colon): 6.07 µM; GI50 (IGROV1 ovarian): 1.82 µM; TGI (IGROV1 ovarian): 4.23 µM; GI50 (K-562 leukemia): 2.17 µM; TGI (K-562 leukemia): > 100 µM; GI50 (KM12 colon): 1.95 µM; TGI (KM12 colon): 4.22 µM; GI50 (LOX IMVI melanoma): 1.37 µM; TGI (LOX IMVI melanoma): 2.75 µM; GI50 (M14 melanoma): 1.66 µM; TGI (M14 melanoma): 3.59 µM; GI50 (MALME-3M melanoma): 1.82 µM; TGI (MALME-3M melanoma): 4.9 µM; GI50 (MCF7 breast): 1.36 µM; TGI (MCF7 breast): 6.11 µM; GI50 (MDA-MB-435): 1.99 µM; TGI (MDA-MB-435): 4.19 µM; GI50 (MOLT-4 leukemia): 2.1 µM; TGI (MOLT-4 leukemia): 7.57 µM; GI50 (NCI-H226 lung): 2.16 µM; TGI (NCI-H226 lung): 5.19 µM; GI50 (NCI-H23 lung): 2.26 µM; TGI (NCI-H23 lung): 6.88 µM; GI50 (NCI-H460 lung): 2.21 µM; TGI (NCI-H460 lung): 6.44 µM; GI50 (NCI-H522 lung): 2.02 µM; TGI (NCI-H522 lung): 5.15 µM; GI50 (NCI/ADR-RES ovarian): 4.13 µM; TGI (NCI/ADR-RES ovarian): > 100 µM; GI50 (OVCAR-3 ovarian): 1.76 µM; TGI (OVCAR-3 ovarian): 3.25 µM; GI50 (OVCAR-4 ovarian): 1.86 µM; TGI (OVCAR-4 ovarian): 4.39 µM; GI50 (OVCAR-5 ovarian): 2.4 µM; TGI (OVCAR-5 ovarian): 6.47 µM; GI50 (OVCAR-8 ovarian): 2.85 µM; TGI (OVCAR-8 ovarian): > 100 µM; GI50 (PC-3 prostate): 2.03 µM; TGI (PC-3 prostate): 5.74 µM; GI50 (RPMI-8226 leukemia): 1.78 µM; TGI (RPMI-8226 leukemia): 6.74 µM; GI50 (RXF 393 renal): 1.83 µM; TGI (RXF 393 renal): 3.68 µM; GI50 (SF-268 CNS): 2.52 µM; TGI (SF-268 CNS): 7.65 µM; GI50 (SF-295 CNS): 10 µM; TGI (SF-295 CNS): 24.4 µM; GI50 (SF-539 CNS): 2.08 µM; TGI (SF-539 CNS): 5.27 µM; GI50 (SK-MEL-2 melanoma): 2.8 µM; TGI (SK-MEL-2 melanoma): 9.55 µM; GI50 (SK-MEL-28 melanoma): 1.85 µM; TGI (SK-MEL-28 melanoma): 3.72 µM; GI50 (SK-MEL-5 melanoma): 1.68 µM; TGI (SK-MEL-5 melanoma): 3.06 µM; GI50 (SK-OV-3 ovarian): 5.23 µM; TGI (SK-OV-3 ovarian): > 100 µM; GI50 (SN12C renal): 2.26 µM; TGI (SN12C renal): 7.49 µM; GI50 (SNB-19 CNS): 3.14 µM; TGI (SNB-19 CNS): 13 µM; GI50 (SNB-75 CNS): 1.22 µM; TGI (SNB-75 CNS): 12.9 µM; GI50 (SW-620 colon): 1.72 µM; TGI (SW-620 colon): 3.67 µM; GI50 (T-47D breast): 2.8 µM; TGI (T-47D breast): 17.2 µM; GI50 (TK-10 renal): 2.3 µM; TGI (TK-10 renal): 4.53 µM; GI50 (U251 CNS): 2.54 µM; TGI (U251 CNS): 8.01 µM; GI50 (UACC-257 melanoma): 2.63 µM; TGI (UACC-257 melanoma): 10.2 µM; GI50 (UACC-62 melanoma): 1.67 µM; TGI (UACC-62 melanoma): 3.73 µM; GI50 (UO-31 renal): 1.61 µM; TGI (UO-31 renal): 3.49 µM
